Experimental data reported in patent US20240109865A1, “INDAZOLE COMPOUNDS AS KINASE INHIBITORS” (TYRA BIOSCIENCES, INC., priority 2020, published 2024).

Experiments:
Assay in all cases: Kinase assay, binding constants (Kd), kinase-tagged T7 phage, qPCR
[1] = target: FGFR4 (Homo sapiens (Human), UniProt P22455)
Outline: (§1)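 Competition binding: T7 phage-tagged kinase + biotin-ligand beads + compound (11 pts, 3-fold, 0.9% DMSO). Elution 30 min RT with free ligand; qPCR quantitation. Kd via Hill fit, slope −1.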

[2] = target: FGFR3 (Homo sapiens (Human), UniProt P22607)
Chain of FGFR3 (P22607 23-806): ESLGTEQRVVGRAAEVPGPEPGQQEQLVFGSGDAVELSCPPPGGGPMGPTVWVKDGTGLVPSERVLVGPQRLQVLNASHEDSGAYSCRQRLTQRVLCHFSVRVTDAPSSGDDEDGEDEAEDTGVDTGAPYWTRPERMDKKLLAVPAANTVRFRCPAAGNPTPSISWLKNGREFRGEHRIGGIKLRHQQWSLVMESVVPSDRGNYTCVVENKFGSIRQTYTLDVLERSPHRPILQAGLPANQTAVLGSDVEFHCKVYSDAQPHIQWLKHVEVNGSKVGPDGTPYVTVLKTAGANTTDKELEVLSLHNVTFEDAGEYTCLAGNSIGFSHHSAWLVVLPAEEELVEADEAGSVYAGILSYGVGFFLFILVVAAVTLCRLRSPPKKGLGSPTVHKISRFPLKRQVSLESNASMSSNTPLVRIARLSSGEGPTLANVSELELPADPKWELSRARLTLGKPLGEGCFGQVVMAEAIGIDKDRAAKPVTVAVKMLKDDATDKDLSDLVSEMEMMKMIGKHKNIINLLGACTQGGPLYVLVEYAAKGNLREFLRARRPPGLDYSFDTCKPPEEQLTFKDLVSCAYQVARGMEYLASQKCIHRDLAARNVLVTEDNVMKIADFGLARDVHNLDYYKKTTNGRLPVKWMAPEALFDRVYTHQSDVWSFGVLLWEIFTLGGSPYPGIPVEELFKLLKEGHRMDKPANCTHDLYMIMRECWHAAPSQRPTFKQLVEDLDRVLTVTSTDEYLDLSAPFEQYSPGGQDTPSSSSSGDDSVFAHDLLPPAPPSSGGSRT
Outline: as §1

[3] = target: FGFR1 (Homo sapiens (Human), UniProt P11362)
Chain of FGFR1 (P11362 22-822): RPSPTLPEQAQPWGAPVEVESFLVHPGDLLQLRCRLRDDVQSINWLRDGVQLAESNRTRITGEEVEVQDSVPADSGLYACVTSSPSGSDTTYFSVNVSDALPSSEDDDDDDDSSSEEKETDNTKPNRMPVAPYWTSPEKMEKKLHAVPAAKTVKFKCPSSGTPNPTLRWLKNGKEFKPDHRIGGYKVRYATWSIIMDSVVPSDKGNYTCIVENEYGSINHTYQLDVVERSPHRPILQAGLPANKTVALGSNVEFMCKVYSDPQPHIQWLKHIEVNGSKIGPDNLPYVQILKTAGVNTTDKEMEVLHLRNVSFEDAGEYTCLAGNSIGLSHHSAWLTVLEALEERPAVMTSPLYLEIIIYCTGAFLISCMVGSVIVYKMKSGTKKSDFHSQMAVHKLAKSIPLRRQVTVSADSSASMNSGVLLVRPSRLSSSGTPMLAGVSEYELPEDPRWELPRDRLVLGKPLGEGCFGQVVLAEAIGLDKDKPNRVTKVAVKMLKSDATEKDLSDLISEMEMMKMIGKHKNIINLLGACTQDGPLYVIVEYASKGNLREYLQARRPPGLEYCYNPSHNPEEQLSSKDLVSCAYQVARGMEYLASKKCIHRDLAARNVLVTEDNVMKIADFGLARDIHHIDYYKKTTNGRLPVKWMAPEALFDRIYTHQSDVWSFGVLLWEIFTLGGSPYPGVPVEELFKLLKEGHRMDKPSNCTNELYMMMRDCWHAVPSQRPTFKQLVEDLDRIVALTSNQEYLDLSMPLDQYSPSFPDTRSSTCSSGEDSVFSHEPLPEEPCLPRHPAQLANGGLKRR
Outline: as §1

[4] = target: FGFR2 (Homo sapiens (Human), UniProt P21802)
Chain of FGFR2 (P21802 22-821): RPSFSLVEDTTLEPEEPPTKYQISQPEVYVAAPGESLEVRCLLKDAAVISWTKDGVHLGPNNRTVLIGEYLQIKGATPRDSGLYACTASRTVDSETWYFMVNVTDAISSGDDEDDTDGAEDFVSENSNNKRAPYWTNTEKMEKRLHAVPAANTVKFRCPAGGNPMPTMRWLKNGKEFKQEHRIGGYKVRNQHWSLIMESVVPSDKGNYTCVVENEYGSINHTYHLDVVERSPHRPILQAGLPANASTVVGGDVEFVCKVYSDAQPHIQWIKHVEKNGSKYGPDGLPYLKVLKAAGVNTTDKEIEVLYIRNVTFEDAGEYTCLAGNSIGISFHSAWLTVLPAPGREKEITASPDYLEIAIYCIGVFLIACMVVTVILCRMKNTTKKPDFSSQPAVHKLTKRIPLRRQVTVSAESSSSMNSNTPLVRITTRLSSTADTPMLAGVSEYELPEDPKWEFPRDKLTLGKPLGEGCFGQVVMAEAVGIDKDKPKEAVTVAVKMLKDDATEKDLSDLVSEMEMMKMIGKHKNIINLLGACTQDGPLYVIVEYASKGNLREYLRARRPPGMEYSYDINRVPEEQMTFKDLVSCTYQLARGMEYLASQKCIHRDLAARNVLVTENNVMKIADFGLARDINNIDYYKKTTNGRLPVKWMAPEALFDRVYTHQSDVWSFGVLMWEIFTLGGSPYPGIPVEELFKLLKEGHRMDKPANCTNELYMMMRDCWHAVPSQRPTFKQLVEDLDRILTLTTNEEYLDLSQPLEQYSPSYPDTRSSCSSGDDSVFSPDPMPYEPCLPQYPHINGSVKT
Outline: as §1

[5] = target: FGFR3 (V555M) (Homo sapiens (Human), UniProt P22607, V555M); settings: V555M mutant
Chain of FGFR3 (V555M) (P22607 23-806 V555M): as the sequence (P22607 23-806) above, with V533M counted along it
Outline: as §1

Chain of FGFR4 (P22455 22-802): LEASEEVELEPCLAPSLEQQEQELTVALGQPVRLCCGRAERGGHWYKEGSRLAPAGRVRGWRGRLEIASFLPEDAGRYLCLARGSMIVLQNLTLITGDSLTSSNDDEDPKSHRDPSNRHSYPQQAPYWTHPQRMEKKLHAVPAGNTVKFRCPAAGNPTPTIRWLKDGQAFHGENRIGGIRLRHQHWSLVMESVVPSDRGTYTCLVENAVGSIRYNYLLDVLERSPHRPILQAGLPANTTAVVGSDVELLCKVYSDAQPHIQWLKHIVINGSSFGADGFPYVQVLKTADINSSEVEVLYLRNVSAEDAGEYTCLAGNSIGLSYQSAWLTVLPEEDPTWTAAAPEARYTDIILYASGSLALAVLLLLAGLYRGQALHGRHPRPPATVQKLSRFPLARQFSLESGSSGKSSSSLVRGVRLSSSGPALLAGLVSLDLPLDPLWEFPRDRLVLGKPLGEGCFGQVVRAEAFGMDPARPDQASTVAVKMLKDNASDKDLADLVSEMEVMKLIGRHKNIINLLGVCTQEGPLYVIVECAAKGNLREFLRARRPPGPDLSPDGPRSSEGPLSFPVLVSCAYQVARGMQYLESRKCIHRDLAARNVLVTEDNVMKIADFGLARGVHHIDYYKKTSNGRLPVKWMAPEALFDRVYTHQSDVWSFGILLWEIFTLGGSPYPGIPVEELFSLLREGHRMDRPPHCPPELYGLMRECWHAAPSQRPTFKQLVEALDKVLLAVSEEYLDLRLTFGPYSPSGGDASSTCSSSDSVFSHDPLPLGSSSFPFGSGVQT

| Kd [1] [nM] | Kd [2] [nM] | Kd [3] [nM] | Kd [4] [nM] | Kd [5] [nM] | Structure (SMILES) |
| --- | --- | --- | --- | --- | --- |
| 1 to 20 | 1 to 20 | 20 to 100 | 1 to 20 | 1 to 20 | Cc1cc(-c2n[nH]c3ccc(O[C@H](C)c4c(C)cnnc4C)cc23)cnc1N1CCN2C(=O)NCC2C1 (stereo partly drawn) [Example 231, 7-(5-(5-((R)-1-(3,5-dimethylpyridazin-4-yl)ethoxy)-1H-indazol-3-yl)-3-methylpyridin-2-yl)hexahydroimidazo[1,5-a]pyrazin-3(2H)-one] |
| 1 to 20 | 1 to 20 | 20 to 100 | 20 to 100 | 1 to 20 | Cc1ncc(Cl)c([C@@H](C)Oc2ccc3[nH]nc(-c4ccc(N5CCC[C@@H]5CO)nc4)c3c2)c1Cl [Example 232, [(2R)-1-[5-[5-[(1R)-1-(3,5-dichloro-2-methyl-4-pyridyl)ethoxy]-1H-indazol-3-yl]-2-pyridyl]pyrrolidin-2-yl]methanol] |
| > 300 | 20 to 100 | > 300 | 100 to 300 | 20 to 100 | C[C@@H](Oc1ccc2[nH]nc(-c3ccc(N4CC5(C4)CN(S(C)(=O)=O)C5)nc3)c2c1)c1c(Cl)cnnc1Cl [Example 233, (R)-5-(1-(3,5-dichloropyridazin-4-yl)ethoxy)-3-(6-(6-(methylsulfonyl)-2,6-diazaspiro[3.3]heptan-2-yl)pyridin-3-yl)-1H-indazole] |
| 1 to 20 | 1 to 20 | 100 to 300 | 100 to 300 | 1 to 20 | Cc1cc(-c2n[nH]c3ccc(O[C@H](C)c4c(Cl)cnc(C)c4Cl)cc23)cnc1N1CC(CO)(CO)C1 [Example 234, [1-[5-[5-[(1R)-1-(3,5-dichloro-2-methyl-4-pyridyl)ethoxy]-1H-indazol-3-yl]-3-methyl-2-pyridyl]-3-(hydroxymethyl)azetidin-3-yl]methanol] |
| 1 to 20 | 1 to 20 | 100 to 300 | 100 to 300 | 1 to 20 | Cc1cc(-c2n[nH]c3ccc(O[C@H](C)c4c(Cl)cnc(C)c4Cl)cc23)cnc1N1CC2(C1)CN(S(C)(=O)=O)C2 [Example 235, 5-[(1R)-1-(3,5-dichloro-2-methyl-4-pyridyl)ethoxy]-3-[5-methyl-6-(2-methylsulfonyl-2,6-diazaspiro[3.3]heptan-6-yl)-3-pyridyl]-1H-indazole] |
| 1 to 20 | 1 to 20 | 20 to 100 | 1 to 20 | 1 to 20 | C[C@@H](Oc1ccc2[nH]nc(-c3ccc(N4CCC[C@@H]4CO)nc3)c2c1)c1c(Cl)cncc1Cl [Example 236, ((R)-1-(5-(5-((R)-1-(3,5-dichloropyridin-4-yl)ethoxy)-1H-indazol-3-yl)pyridin-2-yl)pyrrolidin-2-yl)methanol] |
| 1 to 20 | 1 to 20 | 1 to 20 | 1 to 20 | 1 to 20 | C[C@@H](Oc1ccc2[nH]nc(-c3ccc(N4CCC[C@H]4CO)nc3)c2c1)c1c(Cl)cncc1Cl [Example 237, ((S)-1-(5-(5-((R)-1-(3,5-dichloropyridin-4-yl)ethoxy)-1H-indazol-3-yl)pyridin-2-yl)pyrrolidin-2-yl)methanol] |
| 1 to 20 | 1 to 20 | 20 to 100 | 20 to 100 | 1 to 20 | COC1CC2(C1)CN(c1ccc(-c3n[nH]c4ccc(O[C@H](C)c5c(Cl)cnc(C)c5Cl)cc34)cn1)C2 [Example 238, 5-[(1R)-1-(3,5-dichloro-2-methyl-4-pyridyl)ethoxy]-3-[6-(6-methoxy-2-azaspiro[3.3]heptan-2-yl)-3-pyridyl]-1H-indazole] |
| 1 to 20 | 1 to 20 | 1 to 20 | 1 to 20 | 1 to 20 | COc1cc2[nH]nc(-c3cnc(N4CC5(C4)CN(S(C)(=O)=O)C5)nc3)c2cc1O[C@H](C)c1c(Cl)cncc1Cl [Example 239, 5-[(1R)-1-(3,5-dichloro-4-pyridyl)ethoxy]-6-methoxy-3-[2-(2-methylsulfonyl-2,6-diazaspiro[3.3]heptan-6-yl)pyrimidin-5-yl]-1H-indazole] |
| 1 to 20 | 1 to 20 | 1 to 20 | 1 to 20 | 1 to 20 | COc1cc2[nH]nc(-c3cnc(N4CC5(C4)CN(S(C)(=O)=O)C5)nc3)c2cc1O[C@H](C)c1c(Cl)cnc(C)c1Cl [Example 240, 5-[(1R)-1-(3,5-dichloro-2-methyl-4-pyridyl)ethoxy]-6-methoxy-3-[2-(2-methylsulfonyl-2,6-diazaspiro[3.3]heptan-6-yl)pyrimidin-5-yl]-1H-indazole] |
| 1 to 20 | 1 to 20 | 1 to 20 | 20 to 100 | 1 to 20 | Cc1ncc(Cl)c([C@@H](C)Oc2ccc3[nH]nc(-c4ccc(N5CCC[C@H]5CO)nc4)c3c2)c1Cl [Example 241, [(2S)-1-[5-[5-[(1R)-1-(3,5-dichloro-2-methyl-4-pyridyl)ethoxy]-1H-indazol-3-yl]-2-pyridyl]pyrrolidin-2-yl]methanol] |
| 1 to 20 | 1 to 20 | 1 to 20 | 1 to 20 | 1 to 20 | COc1cc2[nH]nc(-c3cnc(N4CC5(C4)CN(S(C)(=O)=O)C5)c(F)c3)c2cc1O[C@H](C)c1c(Cl)cncc1Cl [Example 242, 5-[(1R)-1-(3,5-dichloro-4-pyridyl)ethoxy]-3-[5-fluoro-6-(2-methylsulfonyl-2,6-diazaspiro[3.3]heptan-6-yl)-3-pyridyl]-6-methoxy-1H-indazole] |
| 1 to 20 | 1 to 20 | 1 to 20 | 1 to 20 | 1 to 20 | COc1cc2[nH]nc(-c3cnc(N4CC5(C4)CN(S(C)(=O)=O)C5)c(F)c3)c2cc1O[C@H](C)c1c(Cl)cnc(C)c1Cl [Example 243, 5-[(1R)-1-(3,5-dichloro-2-methyl-4-pyridyl)ethoxy]-3-[5-fluoro-6-(2-methylsulfonyl-2,6-diazaspiro[3.3]heptan-6-yl)-3-pyridyl]-6-methoxy-1H-indazole] |
| 1 to 20 | 1 to 20 | 20 to 100 | 20 to 100 | 1 to 20 | Cc1ncc(Cl)c([C@@H](C)Oc2ccc3[nH]nc(-c4cnc(N5CC6(C5)CN(S(C)(=O)=O)C6)c(F)c4)c3c2)c1Cl [Example 244, 5-[(1R)-1-(3,5-dichloro-2-methyl-4-pyridyl)ethoxy]-3-[5-fluoro-6-(2-methylsulfonyl-2,6-diazaspiro[3.3]heptan-6-yl)-3-pyridyl]-1H-indazole] |
| 1 to 20 | 1 to 20 | 1 to 20 | 1 to 20 | 1 to 20 | C[C@@H](Oc1ccc2[nH]nc(-c3ccc(N4CC5(CN(C(=O)C(F)(F)F)C5)C4)nc3)c2c1)c1c(Cl)cncc1Cl [Example 245, 1-[6-[5-[5-[(1R)-1-(3,5-dichloro-4-pyridyl)ethoxy]-1H-indazol-3-yl]-2-pyridyl]-2,6-diazaspiro[3.3]heptan-2-yl]-2,2,2-trifluoro-ethanone] |
| 1 to 20 | 1 to 20 | 1 to 20 | 1 to 20 | 1 to 20 | C[C@@H](Oc1ccc2[nH]nc(-c3ccc(N4CC5(C4)CN(S(C)(=O)=O)C5)nc3)c2c1)c1c(Cl)cnnc1Cl [Example 246, (R)-5-(1-(3,5-dichloropyridazin-4-yl)ethoxy)-3-(6-(6-(methylsulfonyl)-2,6-diazaspiro[3.3]heptan-2-yl)pyridin-3-yl)-1H-indazole] |
| 1 to 20 | 1 to 20 | 20 to 100 | 20 to 100 | 1 to 20 | Cc1ncc(Cl)c([C@@H](C)Oc2ccc3[nH]nc(-c4ccc(N5CC6(CCC(O)C6)C5)nc4)c3c2)c1Cl (stereo partly drawn) [Example 247, 2-[5-[5-[(1R)-1-(3,5-dichloro-2-methyl-4-pyridyl)ethoxy]-1H-indazol-3-yl]-2-pyridyl]-2-azaspiro[3.4]octan-6-ol] |
| 1 to 20 | 1 to 20 | 20 to 100 | 20 to 100 | 1 to 20 | Cc1cc(-c2n[nH]c3ccc(O[C@H](C)c4c(Cl)cncc4Cl)cc23)cnc1N1CC2(C1)CN(S(C)(=O)=O)C2 [Example 248, 5-[(1R)-1-(3,5-dichloro-4-pyridyl)ethoxy]-3-[5-methyl-6-(2-methylsulfonyl-2,6-diazaspiro[3.3]heptan-6-yl)-3-pyridyl]-1H-indazole] |
| 1 to 20 | 1 to 20 | 20 to 100 | 20 to 100 | 1 to 20 | C[C@@H](Oc1ccc2[nH]nc(-c3ccc(N4CC(C(F)(F)F)C4)nc3)c2c1)c1c(Cl)cncc1Cl [Example 249, (R)-5-(1-(3,5-dichloropyridin-4-yl)ethoxy)-3-(6-(3-(trifluoromethyl)azetidin-1-yl)pyridin-3-yl)-1H-indazole] |
| 1 to 20 | 1 to 20 | 1 to 20 | 1 to 20 | 1 to 20 | COc1cc2[nH]nc(-c3cnc(N4CC5(C4)CN(S(C)(=O)=O)C5)c(C)c3)c2cc1O[C@H](C)c1c(Cl)cncc1Cl [Example 250, 5-[(1R)-1-(3,5-dichloro-4-pyridyl)ethoxy]-6-methoxy-3-[5-methyl-6-(2-methylsulfonyl-2,6-diazaspiro[3.3]heptan-6-yl)-3-pyridyl]-1H-indazole] |
| 1 to 20 | 1 to 20 | 1 to 20 | 1 to 20 | 1 to 20 | Cc1cc2[nH]nc(-c3ccc(N4CC5(C4)CN(S(C)(=O)=O)C5)nc3)c2cc1O[C@H](C)c1c(Cl)cncc1Cl [Example 251, (R)-5-(1-(3,5-dichloropyridin-4-yl)ethoxy)-6-methyl-3-(6-(6-(methylsulfonyl)-2,6-diazaspiro[3.3]heptan-2-yl)pyridin-3-yl)-1H-indazole] |
